{
  "source": "patent US20230132973A1",
  "about": "“DIHYDRO-SPIRO[INDOLINE-3:1'-iSOQUINOLIN]-2-ONES AS ANTIMALARIAL AGENTS” (The University of Buea, priority 2020, published 2023)",
  "key": {"[1]": {"tested_on": "CQ-sensitive 3D7 strain of P. falciparum", "test": "SYBR green I-based parasite growth inhibition assay, 3D7 strain", "format": "cell-based, Plasmodium falciparum", "settings": "for EC50: Plasmodium falciparum"}, "[2]": {"tested_on": "asexual blood stages of P. falciparum", "test": "Life cycle stage specific action by microscopy of Giemsa-stained thin smears", "format": "cell-based, Plasmodium falciparum", "settings": "10 μM, 24 h; for stage specific action on asexual blood stages (ring, trophozoite, schizont): treated at early ring, mid-trophozoite or mid-schizont; for vacuolation in treated parasites: Giemsa-stained thin smears", "experimental": "The life cycle stage specific action of (±)-moxiquindole was determined by treatment of parasites at different time points followed by microscopic analysis of Giemsa-stained thin blood smears. Stage proportions were calculated for each asexual parasite stage in the drug treated wells relative to the same stage in the negative control wells.\nThe inhibitory effects of active compounds or reference drugs on parasite development and schizont rupture were determined by quantitative light microscopy as previously described (Lee et al., 2015). Briefly, synchronized cultures (1.5% hematocrit and 3% parasitemia) at different time-points (early rings, mid trophozoites and schizonts) were treated with either test compound or controls at 10 μM final concentration for 24 h under regular culture conditions. Following treatment, Giemsa-stained thin smears were prepared and parasites were counted in 1,000 erythrocytes per treatment. Stage proportions in test wells relative to solvent control wells were calculated and used to assess the in vitro effects of each compound on trophozoites and schizont development as well as merozoite egress and invasion."}, "[3]": {"tested_on": "vacuolar lipid dynamics in P. falciparum", "test": "Effect on vacuolar lipid dynamics (Oil Red O staining)", "format": "cell-based, Plasmodium falciparum", "settings": "trophozoite stage parasites, 24 h", "experimental": "Because cellular vacuolation may result from perturbation of intracellular lipid content, we investigated the effect of (±)-moxiquindole on vacuolar lipid dynamics using fluorescent Oil red O as lipid stain.\nThe effect of the compounds on intracellular lipid dynamics was assessed by measurement of intracellular lipid content using Oil Red O. Briefly, early rings or late trophozoite stage parasites (30 hpi) were treated with the compounds or controls for 24 h under regular culture conditions. Following treatment, inhibitors were removed by centrifugation at 2500 rpm for 5 min and pellets were washed in equal volumes of 1×PBS. The parasites were fixed with 4% paraformaldehyde for 30 min at room temperature and pelleted at 2500. Three volumes of Oil Red O (ORO) stock solution (5 mg/mL in 100% isopropanol) were diluted in two volumes of distilled water and filtered prior to use. About 100 μL of the ORO were added to parasite pellets in the tube and incubated for 30 minutes. Parasites were pelleted and washed twice in distilled water. Thereafter, parasites were deposited on pre-cleaned coverslips and air dried. Dried coverslips were mounted in DAPI antifade reagent onto cleaned slides, air dried and viewed under a 100× oil immersion lens and images acquired using a Leica DM1000 fluorescence microscope suite (LAS version 4.5)."}, "[4]": {"tested_on": "P. chabaudi-infected mice", "test": "Peter's four-day suppressive test (chemosuppressive activity)", "format": "in vivo, Swiss albino mice", "experimental": "Following the encouraging in vitro antiplasmodial activities and cytotoxicity profiles reported above, as well as the ADMET properties of the primary and secondary hits identified in this study, studies were carried out to assess the in vivo efficacy of these compounds in laboratory mice. Chemosuppressive potentials were assessed using the Peter's four-day test whereas the ability of each compound to cure an established plasmodial infection was determined using the Rane's test. To assess the in vivo chemosuppressive potential of the compounds, groups of P. chabaudi-infected mice were treated by ip injection for 3 days following infection using fixed doses of 0.03, 0.3, 3, 10, or 30 mg/kg for each compound. The percent suppression of parasite growth in treated groups was calculated relative to the control group and the growth inhibition curves plotted.\nEight-week old male Swiss albino mice weighing approximately 23±3 g were housed in cages and maintained in a well-ventilated room under standard environmental conditions of temperature at 22-24° C., under a 12 h dark-light cycle, with food and water provided ad libitum.\nThe animals were allowed one week acclimation before commencement of the study. Three (3) mice were infected with stocked blood containing Plasmodium chabaudi parasites and used as donors. In brief, frozen blood containing the sulfadoxine/pyrimethamine resistant P. c. chabaudi (AS(50S/P) parasites was thawed and about 200 μL parasites were injected intra-peritoneally (i.p) into each of the three mice and parasitemia monitored through blood smear until a 20% threshold was reached. These infected animals then served as donors to the experimental animals. Ethical approval for the study was obtained from the University of Douala Institutional Review Board (N^oIEC-UD/1146/09/2017/A).\nIn vivo efficacies were conducted following a modification of the Peter's four-day suppressive test as previously described (Lee et al., 2014, Tarkang et al., 2014). Briefly, following parasite passage in donor mice, the mice were euthanized using diethyl ether and P. c. chabaudi infected blood was obtained by cardiac puncture and placed into heparinized tubes. The blood was then diluted with phosphate buffered saline (PBS) and immediately used to infect the experimental mice. Mice were randomly divided into seven (7) groups of 3 animals and each mouse was injected with 1×10^7 infected erythrocytes intraperitoneally (Day 0). The mice were kept for 24 hours to establish infection and Giemsa thin blood smears were prepared to quantify parasites (Day 1). Thereafter, groups 1, 2, 3, 4 and 5 were treated with compounds dissolved in 1×PBS, intraperitoneally at dosages of 30, 10, 3, 0.3 and 0.03 mg/kg body weight, respectively, while groups 6 and 7 were treated with vehicle or chloroquine at 10 mg/kg, respectively for three consecutive days (Day 1-Day 3). Twenty-four (24) and ninety-six (96) hours post-infection, thin blood smears were prepared from each animal with blood obtained from the tail vein, fixed in methanol and stained with 10% Giemsa.\nParasitemia was determined by light microscopy using a 100× objective lens and the following equation: […]\nAverage percentage chemosuppression was calculated as\nWhere A is mean parasitemia in negative control and B is mean parasitemia in test group"}, "[5]": {"tested_on": "hemoglobin metabolism in P. falciparum ring and trophozoite stage parasites", "test": "Effect on hemoglobin degradation (intraparasitic hemoglobin content)", "format": "cell-based, Plasmodium falciparum", "settings": "10 μM, 24 h, relative to E64-treated cultures", "experimental": "Owing to the fact that the DSIIQs are constructed from the THIQ pharmacophore of naphthylisoquinolines, which appear to target proteases involved in hemoglobin degradation, we assessed the effect of this DSIIQ on hemoglobin metabolism. Briefly, tightly synchronized ring and trophozoite stage parasites were treated with test compounds for 24 h followed by parasite isolation and quantification of the intraparasitic hemoglobin contents.\nTo investigate drug effects on hemoglobin degradation, early ring and mid-trophozoite stage parasites (1.5% hematocrit, 5% parasitemia) were co-cultured with the test compounds or experimental controls (0.1% DMSO, chloroquine, artemisinin NITD609 and E64) at a final concentration of 10 μM. The cultures were incubated at 37° C. and 5% CO2 for 24 h. Following incubation, inhibitors were removed by centrifugation at 1800 rpm for 5 min. The pellets were washed in an equal volume of 1×PBS and re-suspended in same volume of 0.1% saponin (in 1×PBS) for 3 min. Isolated parasites were pelleted at 2500 rpm for 5 min and washed twice in an equal volume of 1×PBS. The resulting parasite pellets were permeabilized by treatment in 20 μL of 1% Triton X-100 (in 1×PBS) for 5 min. Intraparasitic hemoglobin content was measured at 550 nm using a Nanodrop spectrophotometer, and folds increase in intra-parasite hemoglobin content was calculated relative to the E64-treated controls."}, "[6]": {"tested_on": "Malaria parasites (ring-stage parasitized erythrocytes)", "test": "Drug-combination (drug-drug interaction) studies, SYBR-Green I", "format": "cell-based, Plasmodium falciparum", "settings": "in combination with artemisinin", "experimental": "In view of the overlapping modes of action between the hybrids and some known antimalarial drugs in terms of targeted cellular processes, we investigated the interaction between these compounds at variable combination ratios. Malaria parasites were continuously cultured and synchronized as earlier described prior to the assay.\nBriefly, two-fold drug dilutions were prepared using a variable potency ratio drug combination approach, starting at 5EC50A: 0EC50B to 0EC50A: 5EC50B in serum-free medium, where A and B represent the different partner molecules.\nThe test was run for 72 h and terminated when the untreated parasites were at the early trophozoite stage of the second cycle. Parasite viability was assessed by the SYBR-Green I fluorescence-based assay as earlier described. Dose-response curves and EC50 values of each combination and drug alone were obtained using GraphPad Prism v.5.0 and Microsoft Excel was used to calculate mean EC50 values and the standard error of the mean."}},
  "note": "“Also recorded” adds a separate entry of the source. Like-named read-outs stand apart in the source and are kept apart here.",
  "data": [
    {"smiles": "COc1cc2c(cc1OC)C1(NCC2)C(=O)N(Cc2ccc(Br)cc2)c2ccc(Cl)cc21", "note": "(stereo not drawn) [Compound 8k]", "values": [
      {"measurement": "parasite growth inhibition in primary assays", "setting": "[1]; primary screening at 10 μM, Pf 3D7, 72 h", "value": "~52", "unit": "%"}
    ]},
    {"smiles": "C[C@H]1Cc2c([nH]c3cc(Cl)c(F)cc23)[C@@]2(N1)C(=O)Nc1ccc(Cl)cc12", "note": "[NITD609]", "values": [
      {"measurement": "stage specific action on asexual blood stages (ring, trophozoite, schizont)", "setting": "[2]", "value": "exhibits inhibitory activities against ring-to-trophozoite development, trophozoite-to-schizont development and schizont rupture"},
      {"measurement": "vacuolation in treated parasites", "setting": "[2]", "value": "induced vacuolation in parasites"}
    ]},
    {"smiles": "COc1cc2c(cc1OC)C1(NCC2)C(=O)Nc2ccc([N+](=O)[O-])cc21", "note": "(stereo not drawn) [Compound 8e, 6′,7′-dimethoxy-5-nitro-3′,4′-dihydro-2′H-spiro[indoline-3,1′-isoquinolin]-2-one]", "values": [
      {"measurement": "melting point", "value": "174 to 175", "unit": "°C"}
    ]},
    {"smiles": "COc1cc2c(cc1OC)C1(NCC2)C(=O)Nc2ccc(N)cc21", "note": "(stereo not drawn) [Compound 8f, 5-amino-6′,7′-dimethoxy-3′,4′-dihydro-2′H-spiro[indoline-3,1′-isoquinolin]-2-one]", "values": [
      {"measurement": "melting point", "value": "186 to 187", "unit": "°C"}
    ]},
    {"smiles": "C[C@@H]1CC[C@H]2[C@@H](C)C(=O)O[C@@H]3O[C@@]4(C)CC[C@@H]1[C@]32OO4", "note": "[Artemisinin, artemisinin]", "values": [
      {"measurement": "stage specific action on asexual blood stages (ring, trophozoite, schizont)", "setting": "[2]", "value": "high proportions of the treated parasite stage at each treatment time-point; also recorded: exhibits inhibitory activities against ring-to-trophozoite development, trophozoite-to-schizont development and schizont rupture"},
      {"measurement": "neutral lipid bodies / vacuolar lipid uptake (Oil red O)", "setting": "[3]", "value": "no effect on vacuolar lipid uptake"},
      {"measurement": "EC50", "setting": "[1]; Pf 3D7, 72 h, read-out: EC50", "value": 15.9, "unit": "nM"}
    ]},
    {"smiles": "COc1cc2c(cc1OC)C1(NCC2)C(=O)Nc2cc(F)c(F)cc21", "note": "(stereo not drawn) [Compound 8g, 5,6-difluoro-6′,7′-dimethoxy-3′,4′-dihydro-2′H-spiro[indoline-3,1′-isoquinolin]-2-one]", "values": [
      {"measurement": "melting point", "value": "220 to 221", "unit": "°C"}
    ]},
    {"smiles": "COc1cc2c(cc1OC)C1(NC(C)C2)C(=O)Nc2ccc(Cl)cc21", "note": "(racemic) [Compound 11, 5-chloro-6′,7′-dimethoxy-3′-methyl-3′,4′-dihydro-2′H-spiro[indoline-3,1′-isoquinolin]-2-one]", "values": [
      {"measurement": "stage specific action on asexual blood stages (ring, trophozoite, schizont)", "setting": "[2]", "value": "exhibits inhibitory activities against ring-to-trophozoite development, trophozoite-to-schizont development and schizont rupture"},
      {"measurement": "vacuolation in treated parasites", "setting": "[2]", "value": "induced vacuolation in parasites"},
      {"measurement": "suppression of parasitemia", "setting": "[4]; 0.3 mg/kg ip", "value": "slight advantage over (±)-moxiquindole"},
      {"measurement": "suppression of parasitemia", "setting": "[4]; 3.0 mg/kg ip", "value": 98, "unit": "%"},
      {"measurement": "ED50", "setting": "[4]; Mus musculus, ip, 72 h, read-out: suppressive ED50", "value": 0.049, "unit": "mg/kg"},
      {"measurement": "times more potent than (±)-moxiquindole", "setting": "[1]; Pf 3D7", "value": 80, "unit": "times"},
      {"measurement": "fold more active than the primary hit (±)-moxiquindole", "setting": "[1]; Pf 3D7 EC50 ratio", "value": 77, "unit": "fold"},
      {"measurement": "EC50", "setting": "[1]; Pf 3D7, 72 h, read-out: EC50", "value": 24, "unit": "nM"},
      {"measurement": "intraparasitic hemoglobin content / accumulation", "setting": "[5]", "value": "accumulation of intra-parasitic hemoglobin"}
    ]},
    {"smiles": "CCN(CC)CCCC(C)Nc1ccnc2cc(Cl)ccc12", "note": "(stereo not drawn) [chloroquine]", "values": [
      {"measurement": "stage specific action on asexual blood stages (ring, trophozoite, schizont)", "setting": "[2]", "value": "rapid accumulation of early rings and trophozoites but not schizonts; also recorded: exhibits inhibitory activities against ring-to-trophozoite development, trophozoite-to-schizont development and schizont rupture"},
      {"measurement": "combination index (CI)", "setting": "[6]", "value": 1.183},
      {"measurement": "suppression of parasitemia", "setting": "[4]; 10 mg/kg, compared with 98% by test compounds at 3.0 mg/kg", "value": "comparable level of suppression of parasitemia"},
      {"measurement": "neutral lipid bodies / vacuolar lipid uptake (Oil red O)", "setting": "[3]", "value": "devoid of neutral lipid bodies"},
      {"measurement": "EC50", "setting": "[1]; 3D7, 72 h", "value": 13.9, "unit": "nM"}
    ]},
    {"smiles": "CC(C)C[C@H](NC(=O)[C@H]1O[C@@H]1C(=O)O)C(=O)NCCCCN=C(N)N", "note": "(relative stereo) [Compound E64, L-trans-epoxysuccinyl-leucylamido-(4-guanidino)]", "values": [
      {"measurement": "stage specific action on asexual blood stages (ring, trophozoite, schizont)", "setting": "[2]", "value": "only inhibiting schizont accumulation"},
      {"measurement": "neutral lipid bodies / vacuolar lipid uptake (Oil red O)", "setting": "[3]", "value": "no effect on vacuolar lipid uptake"},
      {"measurement": "intraparasitic hemoglobin content / accumulation", "setting": "[5]", "value": "minimal effect on hemoglobin degradation"}
    ]},
    {"smiles": "COc1cc2c(cc1OC)C1(NCC2)C(=O)Nc2ccc(F)cc21", "note": "(stereo not drawn) [Compound 8o, 5-fluoro-6′,7′-dimethoxy-3′,4′-dihydro-2′H-spiro[indoline-3,1′-isoquinolin]-2-one]", "values": [
      {"measurement": "melting point", "value": "98 to 99", "unit": "°C"}
    ]}
  ]
}
